≈ marks a conversion by molar mass, not a printed value. Where “and” joins values, the source holds several entries; their conditions need not be identical. Equal entries are not always repeated. Where two headings read alike, the source gives them in different places. Starred links: 1 amine or outer side, 2 acyl side, 3 side chain; linkers in the order of their positions; H or OH if unused. Non-standard residues stand in square brackets, D forms with d. Residues, ends and D or L forms follow the SMILES beside them. Groups on a side chain read outwards from the residue. *: point of attachment. γGlu = O=C(O)[C@H](CCC(=O)[*:2])N[*:1]; αMeF = C[C@](N)(Cc1ccccc1)C(=O)O; αMeK = C[C@](N)(CCCCN)C(=O)O; Lauroyl = CCCCCCCCCCCC(=O)*; αMeS = C[C@](N)(CO)C(=O)O; AEEA = NCCOCCOCC(=O)O; Aib = CC(C)(N)C(=O)O
Assays:
[1] = Caco-2 permeability assay, permeability coefficient Papp (Examples 1 and 2); assay type: in vitro ADME, human
Text: The Caco-2 cell line is a continuous cell line of heterogeneous human epithelial colorectal adenocarcinoma cells, which when cultured under specific conditions, become differentiated and polarized such that their phenotype, morphologically and functionally, resembles the enterocytes lining the small intestine. Caco-2 cells express tight junctions, microvilli, and a number of enzymes and transporters that are characteristic of such enterocytes. Caco-2 cells are most commonly used as a tight junction monolayer that provides a physical and biochemical barrier to the passage of drugs and thus serves as an in vitro model of the human small intestinal mucosa to predict the absorption of orally administered drugs. Caco-2 permeability assays were performed by Cyprotex US, LLC (MA, USA) to assess the efficacy of different permeation enhancers. Caco-2 cells were grown on Transwell filters until a transepithelial electric resistance of ˜1000 ohms/cm^2 was achieved. The cells were incubated for three hours with media containing test samples on the apical (top) side of the cell layer, and with blank media on the basolateral (lower) side of the cell layer. Media from the apical and basolateral sides was collected separately after three hours and evaluated for the amount of peptide present on each side. Table 2 gives the permeability coefficient (Papp) of the various test samples, which include the SEQ ID NO:3 GLP-1 peptide in the presence of different excipients.
The apparent permeability coefficients (Papp) of all polypeptides were calculated using the following equation: Papp=dQ/dt×1/A C0
Where dQ/dt is the amount of solutes transported across the Caco-2 barrier in time dt, C0 is the solute concentration in the apical compartment at time zero, and A is the cross-sectional area of the epithelium in contact with apical solution.
The next Caco-2 study was performed to evaluate the ability of additional excipients to enhance the permeability of the SEQ ID NO:3 peptide across tight junction cell layers.

[2] = Canine study, MEDI7219 enterically coated tablets with or without Tris base, fresh or stressed (Example 19, Table 26); assay type: in vivo; details: beagle, dog, plasma, po, Beagle dogs
Text: The objective was to study influence of MEDI7219 (SEQ ID NO:2) enterically coated tablet formulation composition with or without Tris base on bioperformance Study design and outcomes are provided in Table 26.

[3] = Rat intraduodenal study, MEDI7219 with new gallate derivatives and other enhancers (Example 8); assay type: in vivo
Procedure: The next rat ID administration study was performed to assess the oral bioavailability and pharmacokinetics of MEDI7219 (SEQ ID NO:2) formulations containing new gallate derivatives, sodium 2-(3,4,5-trihydroxybenzoyloxy) acetate and butanoate, sodium cholate with propyl gallate, sodium caprate with propyl gallate, sodium caprate with propyl gallate and citric acid, and sucrose monododecanoate.

[4] = physchem
Text: A known amount of the permeation enhancer, the peptide, or both were combined with increasing amounts of buffer until the permeation enhancer and/or the peptide were completely solubilized.

[5] = Rat intraduodenal study, MEDI7219 with new permeation enhancer formulations (Example 7); assay type: in vivo; details: for AUC(0-t) / Cmax / Tmax / half-life: plasma; for half-life: read-out: T ½ (converted)
Procedure: The following rat ID study compared oral bioavailability of the MEDI7219 (SEQ ID NO:2) peptide formulated with new permeation enhancer formulations after intraduodenal administration in rats. All test articles were prepared as solutions in 50 mM Tris, 150 mM mannitol, 0.02% polysorbate 80, pH 8.5. Table 8 gives the formulation and pharmacokinetic analysis details.

[6] = iv, 0.01 mg/kg, IV, 0.01 mg/kg, Group 1 control, 0.01 mg/mL peptide
[7] = other: intraduodenal (ID), 1 mg/kg, ID, 1 mg/kg, Group 2: 0.5 mg/mL peptide, 25 mg/mL Na CDC, 12.5 mg/mL Ethyl Gallate
[8] = other: intraduodenal (ID), 1 mg/kg, ID, 1 mg/kg, Group 3: 0.5 mg/mL peptide, 12.5 mg/mL Na CDC, 25 mg/mL Ethyl Gallate
[9] = other: intraduodenal (ID), 1 mg/kg, ID, 1 mg/kg, Group 4: 0.5 mg/mL peptide, 25 mg/mL Na CDC, 12.5 mg/mL Octyl Gallate
[10] = other: intraduodenal (ID), 1 mg/kg, ID, 1 mg/kg, Group 5: 0.5 mg/mL peptide, 25 mg/mL Chenodeoxycholic acid, 12.5 mg/mL PG
[11] = other: intraduodenal (ID), 1 mg/kg, ID, 1 mg/kg, Group 8: 0.5 mg/mL peptide, 25 mg/mL Na CDC, 12.5 mg/mL PG

## CC[C@H](C)[C@H](NC(=O)C(C)(Cc1ccccc1)NC(=O)[C@H](CCC(=O)O)NC(=O)[C@H](CCCCNC(=O)COCCOCCNC(=O)COCCOCCNC(=O)CC[C@H](NC(=O)CCCCCCCCCCCCCCCCC(=O)O)C(=O)O)NC(=O)[C@H](C)NC(=O)[C@H](C)NC(=O)[C@H](CCC(=O)O)NC(=O)CNC(=O)[C@H](CCC(=O)O)NC(=O)[C@H](CC(C)C)NC(=O)C(C)(Cc1ccccc1)NC(=O)[C@H](CO)NC(=O)C(C)(CO)NC(=O)[C@@H](NC(=O)[C@H](CC(=O)O)NC(=O)[C@H](CO)NC(=O)[C@@H](NC(=O)C(C)(Cc1ccccc1)NC(=O)[C@H](CO)NC(=O)CNC(=O)[C@H](CCC(=O)O)NC(=O)C(C)(C)NC(=O)[C@@H](N)Cc1c[nH]cn1)[C@@H](C)O)C(C)C)C(=O)N[C@@H](C)C(=O)NC(C)(Cc1ccccc1)C(=O)N[C@H](C(=O)N[C@H](C(=O)NC(C)(CCCCN)C(=O)NCC(=O)NCC(N)=O)C(C)C)C(C)C (stereo partly drawn) [SEQ ID NO: 3, Free-H-[AIB]-EGS-[αMePhe]-TSDV-[αMeSer]-S-[αMePhe]-LEGEAAK[(PEG2)2-γE-Stearate]-E-[αMePhe]-IA-[αMePhe]-VV-[αMeLys]-GG-amide]
[1]; Caco-2, Example 1, 0.05 mg/mL peptide, ⅛ Lauroglycol FCC:Kolliphor EL:Transcutol HP 5:4:3 (w/w)
  Papp A→B: 0.09 ×10⁻⁶ cm/s
[1]; Caco-2, Example 1, 0.1 mg/mL peptide, 0.5 mg/mL Tetradecylmaltoside
  Papp A→B: 0.05 ×10⁻⁶ cm/s
[1]; Caco-2, Example 1, 0.1 mg/mL peptide, 2.5 mg/mL Tetradecylmaltoside
  Papp A→B: 0.88 ×10⁻⁶ cm/s
[1]; Caco-2, Example 1, 0.1 mg/mL peptide, 5.0 mg/mL Sodium Chenodeoxycholate
  Papp A→B: 6.2 ×10⁻⁶ cm/s
[1]; Caco-2, Example 1, 0.1 mg/mL peptide, 10.0 mg/mL Sodium Decanoate
  Papp A→B: 0.4 ×10⁻⁶ cm/s
[1]; Caco-2, Example 1, 0.1 mg/mL peptide, 12.5 mg/mL Tetradecylmaltoside
  Papp A→B: 7.8 ×10⁻⁶ cm/s
[1]; Caco-2, Example 1, 0.1 mg/mL peptide, 25.0 mg/mL Sodium Chenodeoxycholate
  Papp A→B: 10.3 ×10⁻⁶ cm/s
[1]; Caco-2, Example 1, 0.1 mg/mL peptide, ¼ Lauroglycol FCC:Kolliphor EL:Transcutol HP 5:4:3 (w/w)
  Papp A→B: 0.05 ×10⁻⁶ cm/s
[1]; Caco-2, Example 2, 0.1 mg/mL peptide, 12.5 mg/mL Dodecylmaltoside
  Papp A→B: 6.4 ×10⁻⁶ cm/s
[1]; Caco-2, Example 2, 0.1 mg/mL peptide, 12.5 mg/mL Tetradecylmaltoside
  Papp A→B: 1.4 ×10⁻⁶ cm/s
[1]; Caco-2, Example 2, 0.1 mg/mL peptide, 25.0 mg/mL Sodium Chenodeoxycholate, 12.5 mg/mL Propyl gallate
  Papp A→B: 43.1 ×10⁻⁶ cm/s

## CCCCCCCCCCCC(=O)N[C@@H](CCC(=O)NCCOCCOCC(=O)NCCOCCOCC(=O)NCCCC[C@H](NC(=O)[C@H](C)NC(=O)[C@@H](NC(=O)[C@](C)(Cc1ccccc1)NC(=O)[C@H](CCC(=O)O)NC(=O)[C@](C)(CCCCN)NC(=O)[C@H](C)NC(=O)[C@H](C)NC(=O)[C@H](CCC(=O)O)NC(=O)CNC(=O)[C@H](CCC(=O)O)NC(=O)[C@H](CC(C)C)NC(=O)[C@H](CCCCNC(=O)COCCOCCNC(=O)COCCOCCNC(=O)CC[C@H](NC(=O)CCCCCCCCCCC)C(=O)O)NC(=O)[C@H](CO)NC(=O)[C@](C)(CO)NC(=O)[C@@H](NC(=O)[C@H](CC(=O)O)NC(=O)[C@H](CO)NC(=O)[C@@H](NC(=O)[C@](C)(Cc1ccccc1)NC(=O)[C@H](CO)NC(=O)CNC(=O)[C@H](CCC(=O)O)NC(=O)C(C)(C)NC(=O)[C@@H](N)Cc1c[nH]cn1)[C@@H](C)O)C(C)C)[C@@H](C)CC)C(=O)N[C@H](C(=O)N[C@H](C(=O)N[C@@H](CCC(=O)O)C(=O)NCC(=O)NCC(N)=O)C(C)C)C(C)C)C(=O)O [MEDI7219, Free-H-[AIB]-EGS-[αMePhe]-TSDV-[αMeSer]-SK[(PEG2)2-γE-Lauroyl]-LEGEAA-[αMeLys]-E-[αMePhe]-IAK[(PEG2)2-γE-Lauroyl]-VVEGG-amide] (H-H[Aib]EGS[αMeF]TSDV[αMeS]SK([AEEA-AEEA-γGlu-Lauroyl])LEGEAA[αMeK]E[αMeF]IAK([AEEA-AEEA-γGlu-Lauroyl])VVEGG-NH2)
[2]; 3 mg/dog, freshly prepared enterically coated no Tris tablet
  bioavailability: 5.2%
[2]; 3 mg/dog, freshly prepared enterically coated tablets with Tris
  bioavailability: 12.4%
[2]; stressed enterically coated tablet with Tris
  bioavailability: 3.8%
[2]; stressed enterically coated tablet without Tris
  bioavailability: 9.6%
[3]; ID, 1 mg/kg, Group 6: 12.5 mg/mL Sodium Cholate, 25 mg/mL PG (25 + 50 mg/kg)
  Bioavailability F (%): no bioavailability
[3]; ID, 1 mg/kg, Group 7: 12.5 mg/mL Sodium Caprate, 25 mg/mL PG (25 + 50 mg/kg)
  Bioavailability F (%): ~0.6%
[3]; ID, 1 mg/kg, Group 8: 12.5 mg/mL Sodium Caprate, 25 mg/mL PG, 10 mg/mL Citric Acid
  Bioavailability F (%): 0 (NA) %
[3]; ID, addition of citric acid to sodium caprate and propyl gallate
  exposure: below level of quantification
[3]; IV, 0.01 mg/kg, Group 1 control in 50 mM Tris, 150 mM Mannitol, 0.02% Polysorbate 80, pH 8.5
  Bioavailability F (%): 100%
[4]; pH 5, aqueous buffer, thermodynamic from solid
  solubility: < 10 mg/mL
[4]; pH 5.5
  solubility: < 10 mg/mL
[4]; pH 6, aqueous buffer, thermodynamic from solid
  solubility: 75 mg/mL (≈ 17.2 mM)
[4]; pH 7
  solubility: 150 mg/mL (≈ 34.5 mM)
[4]; pH 7.5
  solubility: 180 mg/mL (≈ 41.4 mM)
  solubility as a function of pH (in words): increased in the range of pH 7.0 to 9.0
[4]; pH 8
  solubility: 200 mg/mL (≈ 45.9 mM)
[4]; pH 9
  solubility: > 200 mg/mL
[5]; ID, 1 mg/kg, Group 2: 0.5 mg/mL peptide, 25 mg/mL Na CDC, 12.5 mg/mL Ethyl Gallate
  F: 1.11%
[5]; ID, 1 mg/kg, Group 3: 0.5 mg/mL peptide, 12.5 mg/mL Na CDC, 25 mg/mL Ethyl Gallate
  F: 2.14%
[5]; ID, 1 mg/kg, Group 4: 0.5 mg/mL peptide, 25 mg/mL Na CDC, 12.5 mg/mL Octyl Gallate
  F: 1.12%
[5]; ID, 1 mg/kg, Group 5: 0.5 mg/mL peptide, 25 mg/mL Chenodeoxycholic acid, 12.5 mg/mL PG, 1 mg/kg
  F: 1.96% and 1.92%
[5]; ID, 1 mg/kg, Group 6: 0.5 mg/mL peptide, 25 mg/mL Ursodeoxycholic acid, 12.5 mg/mL PG
  F: 0%
[5]; ID, 1 mg/kg, Group 7: 0.5 mg/mL peptide, 25 mg/mL Na CDC, 12.5 mg/mL PG, 25 mg/mL N-Acetyl Cysteine
  F: 0%
[5]; ID, 1 mg/kg, Group 8: 0.5 mg/mL peptide, 25 mg/mL Na CDC, 12.5 mg/mL PG
  F: 1.45%
[5]; IV, 0.01 mg/kg, Group 1 control, 0.01 mg/mL peptide
  F: 100%
[5]; [6]
  AUC(0-t): 1030 ng·h/mL
  Cmax: 187 ng/mL
  Tmax: 0.083 h
  half-life: 8.9 h
[5]; [7]
  AUC(0-t): 1110 ng·h/mL
  Cmax: 175 ng/mL
  Tmax: 0.25 h
  half-life: 10.3 h
[5]; [8]
  AUC(0-t): 1970 ng·h/mL
  Cmax: 282 ng/mL
  Tmax: 0.25 h
  half-life: 7.96 h
[5]; [9]
  AUC(0-t): 1170 ng·h/mL
  Cmax: 240 ng/mL
  Tmax: 0.25 h
  half-life: 7.97 h
[5]; [10]
  AUC(0-t): 1890 ng·h/mL
  Cmax: 546 ng/mL
  Tmax: 0.25 h
  half-life: 8.6 h
[5]; [11]
  AUC(0-t): 1540 ng·h/mL
  Cmax: 140 ng/mL
  Tmax: 2 h
  half-life: 8.83 h
